Measurements: patent US9271497B2, “1-(substituted-benzoyl)-5-fluoro-4-imino-3-methyl-3,4-dihydropyrimidin-2(1H)-one derivatives” (DOW AGROSCIENCES LLC, priority 2012, dated 2016)

Experiments:
[1] = tested on: Mycosphaerella graminicola; Anamorph: Septoria tritici; Bayer Code SEPTTR; experiment: Fungicidal activity against leaf blotch of wheat, one-day protectant (1DP); format: in vivo; details: wheat plants (variety Yuma), % disease control rating
Experimental: (§1) Evaluation of Fungicidal Activity: Leaf Blotch of Wheat (Mycosphaerella graminicola; Anamorph: Septoria tritici; Bayer Code […]) Wheat plants (variety Yuma) were grown from seed in a greenhouse in 50% mineral soil/50% soil-less Metro mix until the first leaf was fully emerged, with 7-10 seedlings per pot. These plants were inoculated with an aqueous spore suspension of Septoria tritici either prior to or after fungicide treatments. After inoculation the plants were kept in 100% relative humidity (one day in a dark dew chamber followed by two to three days in a lighted dew chamber) to permit spores to germinate and infect the leaf. The plants were then transferred to a greenhouse for disease to develop. The following table presents the activity of typical compounds of the present disclosure when evaluated in these experiments. The effectiveness of the test compounds in controlling disease was determined by assessing the severity of disease on treated plants, then converting the severity to percent control based on the level of disease on untreated, inoculated plants.

[2] = tested on: Mycosphaerella graminicola; Anamorph: Septoria tritici; Bayer Code SEPTTR; experiment: Fungicidal activity against leaf blotch of wheat, three-day curative (3DC); format: in vivo; details: wheat plants (variety Yuma), % disease control rating
Experimental: as §1

## Cn1c(=N)c(F)cn(C(=O)c2cc(Cl)cc(Cl)c2)c1=O [Compound 1, 1-(3,5-dichlorobenzoyl)-5-fluoro-4-imino-3-methyl-3,4-dihydropyrimidin-2(1H)-one]
[1]
  SEPTTR 100 PPM 1DP: A (76-100)
[2]
  SEPTTR 100 PPM 3DC: A (76-100)
other
  melting point: 141.6 to 142.6 °C

## Cc1ccc(C(=O)n2cc(F)c(=N)n(C)c2=O)cc1 [Compound 2]
[1]
  SEPTTR 100 PPM 1DP: A (76-100)
[2]
  SEPTTR 100 PPM 3DC: A (76-100)
other
  melting point: 103 to 107 °C
